# According to patent publication US20070293443A1, “Composition for Accelerating Calcium Absorption” (Good Shusei Co. Ltd, priority 2004, published 2007):
# “Also recorded” adds a separate entry of the source.
# How the values were obtained:
# [1] = tested on: dietary calcium absorption; assay: Dietary calcium absorption accelerating effect, blood calcium level after oral calcium carbonate with test substance (Example 1); type: in vivo; details: male ICR mice, oral 5 mmol/kg calcium carbonate alone or with test substance (1.25-10.0 mmol/kg), up to 4 hours after administration
# Description: For the experiment, 11-weeks old male ICR mice were used after overnight fasting. During the test period, the mice were given deionized water only. […] The doses of L-arabonic acid administered in combination were 1.25 mmol/kg (Group II), 2.5 mmol/kg (Group III), 5.0 mmol/kg (Group IV), and 10.0 mmol/kg (Group V), and the doses of D-gluconic acid were 2.5 mmol/kg (Group VI), 5.0 mmol/kg (Group VII), and 10.0 mmol/kg (Group VIII). […] The blood calcium level was quantified by a chelate colorimetric method (ortho-cresolphthalein complexone (OCPC) method). The obtained data were analyzed by a paired t-test, and a risk ratio of 5% or less was considered as significant difference.
# mice = assay: Single oral administration safety test, LD50; type: in vivo
# Description: As a result of a single oral test using mice, it was confirmed that the LD50 value of L-arabonic acid was about 10 g/kg, and thus L-arabonic acid was a material having high safety.
# While it was discovered in Example 5 that the calcium moiety of calcium L-arabonate used in the invention was extremely readily-absorbable, it was shown in Example 6 that the L-arabonic acid moiety was extremely poorly absorbed in the digestive tract.
# [2] = Kinetics of L-arabonic acid in the digestive tract of rat (Example 3); type: in vivo
# Description: For the experiment, 7 to 11-weeks old male Wistar rats were used after overnight fasting. After orally administering 5 mmol/kg of L-arabonic acid, the animals were entered into a metabolic cage, and were sacrificed after 2 hours, after 6 hours, and after 24 hours, to remove the digestive tracts. The contents in each site of the digestive tract were recovered respectively, and the amount of unaltered L-arabonic acid was quantified by the HPLC method. The entire amounts of urine and feces up to the respective time points were recovered, and the amounts of L-aranobic acid were quantified in the same manner. During the test period, the animals were given deionized water only.
# [3] = tested on: dietary calcium absorption; assay: Dietary calcium absorption accelerating effect of sodium L-arabonate in mice fed calcium-deficient diet (Example 2); type: in vivo; details: for Ca level in blood, 0 min: 0 min (before administration); for Ca level in blood, 0 min / Ca level in blood, 2 hrs / Ca level in blood, 4 hrs: oral 5 mmol/kg calcium carbonate alone (Group I) or with 5 mmol/kg sodium L-arabonate (Group II), n = 4; for Ca level in blood, 2 hrs: 2 hrs after administration; for Ca level in blood, 4 hrs: 4 hrs after administration; for change in blood calcium level: up to 4 hours after oral administration, mice on calcium-deficient diet
# Description: Eight-week old male ICR mice were used and fed calcium-deficient diet and deionized water for one week. The mice were fasted overnight before the test, and were given deionized water only during the test period. […] The obtained data were analyzed by a paired t-test, and a risk ratio of 5% or less was considered as significant difference.
# [4] = Blood calcium level after administration of calcium L-arabonate (Example 5); type: in vivo; details: male ICR mice, oral calcium L-arabonate 1.25, 2.5, 5.0 mmol/kg or calcium carbonate 5 mmol/kg, up to 4 hours
# Description: For the experiment, 11-weeks old male ICR mice were used after overnight fasting. During the test period, the mice were given deionized water only. The mice were divided into four groups (Groups I to IV, 5 animals in each group), and the test substance was orally administered as a solution in deionized water. […] The blood calcium level was quantified by a chelating calorimetric method (ortho-cresolphthalein complexone (OCPC) method). The obtained data were analyzed by a paired t-test, and a risk ratio of 5% or less was considered as significant difference.
# [5] = tested on: experimental osteoporosis induced by combination of ovary excision and calcium-deficient diet; assay: Experimental osteoporosis due to combination of ovary excision and calcium-deficient diet (Example 8); type: in vivo, mice; details: dose 2.5 mmol/kg oral daily
# Description: (§1) Six-week old female ICR mice were divided into five groups (Groups I to V, 10 animals in each group), and fed calcium-deficient feed (calcium carbonate-free AIN 93M, Oriental Yeast Co., Ltd.) for 4 weeks to induce osteoporosis condition. Calcium L-arabonate was dissolved in water and orally administered daily in a dose of 1.25 mmol/kg (Group II) or 2.5 mmol/kg (Group III). The control group for pathological condition (Group I) was administered with water in the same manner. As a comparative group, a group administered with calcium D-gluconate (dose 2.5 mmol/kg (Group IV)) was provided. A normal control group (Group V) was separately provided and was given the normal feed (AIN 93M, Oriental Yeast Co., Ltd.). After administering the test substance on the second week and fourth week of initiation of the test, the animals were transferred to a metabolic cage, and feces were collected for 24 hours. The amount of calcium and phosphorus excreted in the feces were measured, and the absorption rates of ingested calcium and phosphorous in the digestive tract were determined. After completion of the test period, the animals of the respective groups were sacrificed to remove both femurs and tibiae. The femurs and tibiae were removed muscles etc., then immersed in 70% ethanol overnight, and dried at 60° C. for 24 hours to be used as samples for analysis. The measurement items were dry weight, ash content, calcium content, and phosphorus content. The ash content was measured by an ashing method at 550° C. for 18 hours, the calcium content was measured by an OCPC method (Calcium C-Test Wako, Wako Pure Chemical Industries, Ltd.), and the phosphorus content was measured by a p-methylaminophenol reduction method (Phospho C-Test Wako, Wako Pure Chemical Industries, Ltd.). The obtained data were analyzed by ANOVA and the Dunnett's method, and a risk ratio of 5% or less was considered as significant difference.
# Six-weeks old female ICR mice excised their ovaries were divided into 5 groups (Groups I to V, 10 animals in each group), and fed calcium-deficient feed (calcium carbonate-free AIN 93M, Oriental Yeast Co., Ltd.) for 4 weeks to induce osteoporosis condition. Calcium L-arabonate was dissolved in water, and orally administered daily in a dose of 1.25 mmol/kg (Group II) or 2.5 mmol/kg (Group III). The control group for pathological condition (Group I) was administered with water in the same manner. As a comparative group, a group administered with calcium D-gluconate (dose 2.5 mmol/kg (Group IV)) was provided. Also, a group excised ovaries but given with normal feed (AIN 93M, Oriental Yeast Co., Ltd.) (Group V) was separately provided. The measurement of the absorption rate of calcium in the digestive tract, and the analysis of femur and tibia were performed in the same manner as in Example 7.
# [6] = tested on: experimental osteoporosis induced by calcium-deficient diet; assay: Experimental osteoporosis induced by calcium-deficient diet (Example 7); type: in vivo, mice; details: dose 2.5 mmol/kg oral daily
# Description: as §1
compound,measurement,setting,value
"O=C(O)[C@H](O)[C@@H](O)[C@H](O)[C@H](O)CO [D-gluconic acid, reference compound]",change in blood calcium level,[1],not observed to have significant increases in the blood calcium level
O=C(O)[C@H](O)[C@@H](O)[C@@H](O)CO [L-arabonic acid],change in blood calcium level,[1],"dose-dependent and significant increases in the blood calcium level; also recorded: calcium absorption was accelerated by L-arabonic acid, and the effect was rapidly acting and continuous"
same,LD50,mice,about 10 g/kg
same,share of the total amount of administration remained in the cecum and colon,"[2]; after 24 hours, oral 5 mmol/kg",About 30%
same,absorption in the small intestine,[2]; from 2 to 6 hours after oral administration,hardly absorbed in the small intestine
same,"Residual ratio after administration, Cecum, After 2 hrs","[2]; oral 5 mmol/kg L-arabonic acid, cecum, 2 hrs",47.7 ± 3.39%
same,"Residual ratio after administration, Cecum, After 6 hrs","[2]; oral 5 mmol/kg L-arabonic acid, cecum, 6 hrs",60.6 ± 3.26%
same,"Residual ratio after administration, Cecum, After 24 hrs","[2]; oral 5 mmol/kg L-arabonic acid, cecum, 24 hrs",25.9 ± 7.81%
same,"Residual ratio after administration, Colon, After 2 hrs","[2]; oral 5 mmol/kg L-arabonic acid, colon, 2 hrs",0.1 ± 0.14%
same,"Residual ratio after administration, Colon, After 6 hrs","[2]; oral 5 mmol/kg L-arabonic acid, colon, 6 hrs",7.4 ± 2.35%
same,"Residual ratio after administration, Colon, After 24 hrs","[2]; oral 5 mmol/kg L-arabonic acid, colon, 24 hrs",1.9 ± 0.37%
same,"Residual ratio after administration, Small intestine, After 2 hrs","[2]; oral 5 mmol/kg L-arabonic acid, small intestine, 2 hrs",23.0 ± 3.71%
same,"Residual ratio after administration, Small intestine, After 6 hrs","[2]; oral 5 mmol/kg L-arabonic acid, small intestine, 6 hrs",3.3 ± 2.50%
same,"Residual ratio after administration, Small intestine, After 24 hrs","[2]; oral 5 mmol/kg L-arabonic acid, small intestine, 24 hrs",0.8 ± 0.20%
same,"Residual ratio after administration, Stomach, After 2 hrs","[2]; oral 5 mmol/kg L-arabonic acid, stomach, 2 hrs",0%
same,"Residual ratio after administration, Stomach, After 6 hrs","[2]; oral 5 mmol/kg L-arabonic acid, stomach, 6 hrs",0%
same,"Residual ratio after administration, Stomach, After 24 hrs","[2]; oral 5 mmol/kg L-arabonic acid, stomach, 24 hrs",0%
same,L-arabonic acid in excreted feces,"[2]; oral 5 mmol/kg, feces up to 24 hours",detected from the excreted feces
same,unaltered L-arabonic acid in urine,"[2]; oral 5 mmol/kg, urine up to 24 hours","detected from the urine, even in small amount"
same,level of L-arabonic acid in the blood,"[2]; throughout the test period, oral 5 mmol/kg",below the detection limit
"O=C([O-])[O-].[Ca+2] [calcium carbonate, reference compound]",change in blood calcium level,[1],did not show any increase in the blood calcium level
same,"Ca level in blood, 0 min",[3],4.67 ± 0.297 mg/dL
same,"Ca level in blood, 2 hrs",[3],4.58 ± 0.143 mg/dL
same,"Ca level in blood, 4 hrs",[3],4.82 ± 0.189 mg/dL
same,change in blood calcium level,[3],did not show any increase in the blood calcium level
same,change in blood calcium level,[4],did not show any increase in the blood calcium level
O=C([O-])[C@H](O)[C@@H](O)[C@@H](O)CO.[Na+] [sodium L-arabonate],"Ca level in blood, 0 min",[3],4.30 ± 0.121 mg/dL
same,"Ca level in blood, 2 hrs",[3],5.59 ± 0.232 mg/dL
same,"Ca level in blood, 4 hrs",[3],5.62 ± 0.212 mg/dL
same,change in blood calcium level,[3],significant increase in the blood calcium level
calcium D-gluconate [reference compound],"absorption rate of calcium in the digestive tract, fourth week","[5]; fourth week, ovary-excised mice on calcium-deficient diet",45.1%
same,"absorption rate of calcium in the digestive tract, second week","[5]; second week, ovary-excised mice on calcium-deficient diet",61.1%
same,Femur Ash content,"[5]; femur, 4 weeks",27 ± 0.4 mg
same,Femur Ca content,"[5]; femur, 4 weeks",9.4 ± 0.18 mg
same,Femur P content,"[5]; femur, 4 weeks",4.8 ± 0.14 mg
same,Femur Weight,"[5]; femur, 4 weeks",50 ± 1.2 mg
same,Tibia Ash content,"[5]; tibia, 4 weeks",24 ± 0.5 mg
same,Tibia Ca content,"[5]; tibia, 4 weeks",8.6 ± 0.21 mg
same,Tibia P content,"[5]; tibia, 4 weeks",4.4 ± 0.08 mg
same,Tibia Weight,"[5]; tibia, 4 weeks",46 ± 1.0 mg
same,"absorption rate of calcium in the digestive tract, fourth week","[6]; fourth week, calcium-deficient diet mice",59.8%
same,"absorption rate of calcium in the digestive tract, second week","[6]; second week, calcium-deficient diet mice",74.2%
same,Femur Ash content,"[6]; femur, 4 weeks",25 ± 1.3 mg
same,Femur Ca content,"[6]; femur, 4 weeks",8.7 ± 0.42 mg
same,Femur P content,"[6]; femur, 4 weeks",4.7 ± 0.21 mg
same,Femur Weight,"[6]; femur, 4 weeks",46 ± 2.1 mg
same,Tibia Ash content,"[6]; tibia, 4 weeks",23 ± 1.2 mg
same,Tibia Ca content,"[6]; tibia, 4 weeks",8.3 ± 0.34 mg
same,Tibia P content,"[6]; tibia, 4 weeks",4.3 ± 0.16 mg
same,Tibia Weight,"[6]; tibia, 4 weeks",44 ± 1.1 mg
